Experimental data as given in ChEMBL document CHEMBL4507319 (2021).

Columns and labels:
[1] = target: Serine/threonine-protein kinase 35 (Homo sapiens) (UniProt Q8TDR2); conditions: Compound concentration 1000.0 nM
[2] = target: Tyrosine-protein kinase receptor Tie-1 (Homo sapiens) (UniProt P35590); conditions: Compound concentration 1000.0 nM
[3] = target: 5-hydroxytryptamine receptor 2B (Homo sapiens) (UniProt P41595); conditions: Compound concentration 10.0 uM
[4] = target: Ribosomal protein S6 kinase alpha-6 (Homo sapiens) (UniProt Q9UK32); conditions: Compound concentration 1000.0 nM
Sequence of Ribosomal protein S6 kinase alpha-6 (Homo sapiens) (Q9UK32 whole entry): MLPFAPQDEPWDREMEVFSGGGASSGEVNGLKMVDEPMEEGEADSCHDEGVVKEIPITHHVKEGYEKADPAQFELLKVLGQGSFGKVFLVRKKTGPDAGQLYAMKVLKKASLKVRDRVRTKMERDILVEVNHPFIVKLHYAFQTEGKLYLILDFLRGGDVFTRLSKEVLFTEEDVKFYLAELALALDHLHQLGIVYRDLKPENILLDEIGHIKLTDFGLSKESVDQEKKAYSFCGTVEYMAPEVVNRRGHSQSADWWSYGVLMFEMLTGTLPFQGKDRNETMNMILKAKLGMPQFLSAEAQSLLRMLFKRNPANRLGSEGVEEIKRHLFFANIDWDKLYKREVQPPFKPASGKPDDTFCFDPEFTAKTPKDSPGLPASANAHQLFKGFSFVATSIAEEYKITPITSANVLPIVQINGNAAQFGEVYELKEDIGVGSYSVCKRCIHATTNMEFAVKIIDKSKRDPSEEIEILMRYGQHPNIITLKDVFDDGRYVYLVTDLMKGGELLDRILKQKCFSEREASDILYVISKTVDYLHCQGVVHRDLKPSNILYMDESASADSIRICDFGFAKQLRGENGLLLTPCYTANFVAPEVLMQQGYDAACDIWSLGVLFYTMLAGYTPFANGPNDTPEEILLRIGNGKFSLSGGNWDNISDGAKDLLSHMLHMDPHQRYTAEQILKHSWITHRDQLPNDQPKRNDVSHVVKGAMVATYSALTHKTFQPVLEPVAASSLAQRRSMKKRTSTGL

[5] = target: Mitogen-activated protein kinase 6 (Homo sapiens) (UniProt Q16659); conditions: Compound concentration 1000.0 nM
[6] = target: Serine/threonine-protein kinase PLK3 (Homo sapiens) (UniProt Q9H4B4); conditions: Compound concentration 1000.0 nM
Sequence of Serine/threonine-protein kinase PLK3 (Homo sapiens) (Q9H4B4 whole entry, looked up): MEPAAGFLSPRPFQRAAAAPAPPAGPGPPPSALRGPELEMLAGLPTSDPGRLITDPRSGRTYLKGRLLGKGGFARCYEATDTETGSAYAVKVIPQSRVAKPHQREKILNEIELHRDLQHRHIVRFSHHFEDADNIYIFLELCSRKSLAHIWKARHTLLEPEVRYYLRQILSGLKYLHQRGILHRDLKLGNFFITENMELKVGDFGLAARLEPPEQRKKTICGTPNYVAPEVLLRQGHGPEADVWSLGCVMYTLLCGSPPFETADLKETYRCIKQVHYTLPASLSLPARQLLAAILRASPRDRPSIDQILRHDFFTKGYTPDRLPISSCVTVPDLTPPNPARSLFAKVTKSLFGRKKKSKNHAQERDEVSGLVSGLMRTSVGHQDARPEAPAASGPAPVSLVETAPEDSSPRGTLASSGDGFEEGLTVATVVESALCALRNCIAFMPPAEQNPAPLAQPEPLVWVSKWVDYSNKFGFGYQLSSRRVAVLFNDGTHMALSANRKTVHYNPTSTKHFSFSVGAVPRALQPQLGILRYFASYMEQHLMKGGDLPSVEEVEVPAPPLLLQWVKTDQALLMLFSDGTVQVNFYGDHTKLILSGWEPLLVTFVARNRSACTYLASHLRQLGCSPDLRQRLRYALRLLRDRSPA

[7] = target: T1, Interleukin-1 receptor-associated kinase 4 (Homo sapiens) (UniProt Q9NWZ3); conditions: Compound concentration 1000.0 nM
T1 sequence (whole entry): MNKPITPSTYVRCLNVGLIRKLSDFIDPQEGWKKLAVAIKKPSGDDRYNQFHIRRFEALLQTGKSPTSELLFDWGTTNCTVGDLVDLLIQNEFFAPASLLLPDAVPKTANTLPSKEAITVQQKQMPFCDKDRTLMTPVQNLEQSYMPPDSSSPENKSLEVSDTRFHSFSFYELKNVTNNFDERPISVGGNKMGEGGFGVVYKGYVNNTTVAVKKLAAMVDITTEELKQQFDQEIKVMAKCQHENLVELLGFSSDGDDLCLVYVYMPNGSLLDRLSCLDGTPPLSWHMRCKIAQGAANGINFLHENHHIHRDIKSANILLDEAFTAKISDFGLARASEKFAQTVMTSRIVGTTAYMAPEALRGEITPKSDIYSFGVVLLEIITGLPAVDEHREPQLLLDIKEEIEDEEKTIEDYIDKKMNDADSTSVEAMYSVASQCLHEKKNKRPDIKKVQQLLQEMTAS

[8] = target: Insulin receptor-related protein (Homo sapiens) (UniProt P14616); conditions: Compound concentration 1000.0 nM
Sequence of Insulin receptor-related protein (Homo sapiens) (P14616 27-742 limits assumed): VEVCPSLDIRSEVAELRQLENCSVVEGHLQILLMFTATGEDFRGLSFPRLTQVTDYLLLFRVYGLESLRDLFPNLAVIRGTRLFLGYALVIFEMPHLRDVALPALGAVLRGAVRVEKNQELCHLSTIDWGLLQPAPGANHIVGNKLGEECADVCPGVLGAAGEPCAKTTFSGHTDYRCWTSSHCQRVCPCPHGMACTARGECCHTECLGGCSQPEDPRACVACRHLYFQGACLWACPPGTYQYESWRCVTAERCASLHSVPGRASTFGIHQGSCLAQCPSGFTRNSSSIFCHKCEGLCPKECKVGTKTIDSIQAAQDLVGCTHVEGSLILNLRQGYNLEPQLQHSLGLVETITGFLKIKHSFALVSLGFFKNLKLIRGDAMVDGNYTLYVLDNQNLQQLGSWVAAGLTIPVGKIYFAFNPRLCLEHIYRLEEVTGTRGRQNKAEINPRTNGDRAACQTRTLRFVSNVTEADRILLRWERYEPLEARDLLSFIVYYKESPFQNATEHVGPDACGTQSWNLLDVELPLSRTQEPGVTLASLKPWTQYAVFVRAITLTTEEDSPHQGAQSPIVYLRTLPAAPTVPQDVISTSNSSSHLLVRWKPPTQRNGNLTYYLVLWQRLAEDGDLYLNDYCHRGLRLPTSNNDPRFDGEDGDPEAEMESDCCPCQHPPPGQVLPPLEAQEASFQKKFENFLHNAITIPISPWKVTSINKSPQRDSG
Sequence of Insulin receptor-related protein (Homo sapiens) (P14616 747-1297 limits assumed): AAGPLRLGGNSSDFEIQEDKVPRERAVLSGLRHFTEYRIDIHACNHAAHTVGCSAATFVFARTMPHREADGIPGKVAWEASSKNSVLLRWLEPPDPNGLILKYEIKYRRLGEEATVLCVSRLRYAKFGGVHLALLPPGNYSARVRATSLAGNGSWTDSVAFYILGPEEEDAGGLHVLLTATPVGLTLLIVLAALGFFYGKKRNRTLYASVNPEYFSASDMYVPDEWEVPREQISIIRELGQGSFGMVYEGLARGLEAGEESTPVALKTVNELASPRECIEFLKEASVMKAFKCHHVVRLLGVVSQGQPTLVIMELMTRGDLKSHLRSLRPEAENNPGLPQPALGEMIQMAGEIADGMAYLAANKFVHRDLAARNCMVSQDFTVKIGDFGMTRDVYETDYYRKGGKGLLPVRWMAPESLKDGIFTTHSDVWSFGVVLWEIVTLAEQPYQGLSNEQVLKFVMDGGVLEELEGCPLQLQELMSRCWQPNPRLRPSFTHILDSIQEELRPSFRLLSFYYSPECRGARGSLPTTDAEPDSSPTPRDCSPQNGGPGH

[9] = target: Tyrosine-protein kinase BTK (Homo sapiens) (UniProt Q06187); conditions: Compound concentration 1000.0 nM
Sequence of Tyrosine-protein kinase BTK (Homo sapiens) (Q06187 whole entry): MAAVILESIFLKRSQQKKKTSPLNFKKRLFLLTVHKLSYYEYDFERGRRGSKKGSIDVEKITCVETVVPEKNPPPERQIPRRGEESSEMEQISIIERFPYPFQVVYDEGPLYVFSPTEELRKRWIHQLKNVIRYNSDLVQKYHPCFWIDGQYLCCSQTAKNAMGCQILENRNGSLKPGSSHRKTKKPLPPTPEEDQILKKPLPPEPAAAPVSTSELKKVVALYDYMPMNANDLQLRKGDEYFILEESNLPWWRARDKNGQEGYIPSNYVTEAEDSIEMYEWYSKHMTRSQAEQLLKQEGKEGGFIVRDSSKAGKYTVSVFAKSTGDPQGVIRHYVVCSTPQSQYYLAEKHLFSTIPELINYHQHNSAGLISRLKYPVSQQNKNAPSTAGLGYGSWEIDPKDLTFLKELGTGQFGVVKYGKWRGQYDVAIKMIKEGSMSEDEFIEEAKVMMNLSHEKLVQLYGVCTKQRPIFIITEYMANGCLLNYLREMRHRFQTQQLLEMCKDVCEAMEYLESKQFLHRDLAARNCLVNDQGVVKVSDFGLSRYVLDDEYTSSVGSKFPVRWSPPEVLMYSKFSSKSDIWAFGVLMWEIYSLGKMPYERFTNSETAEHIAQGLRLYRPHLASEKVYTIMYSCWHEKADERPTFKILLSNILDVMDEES

[10] = target: T2, Serine/threonine-protein kinase DCLK3 (Homo sapiens) (UniProt Q9C098); conditions: Compound concentration 1000.0 nM
T2 sequence (whole entry): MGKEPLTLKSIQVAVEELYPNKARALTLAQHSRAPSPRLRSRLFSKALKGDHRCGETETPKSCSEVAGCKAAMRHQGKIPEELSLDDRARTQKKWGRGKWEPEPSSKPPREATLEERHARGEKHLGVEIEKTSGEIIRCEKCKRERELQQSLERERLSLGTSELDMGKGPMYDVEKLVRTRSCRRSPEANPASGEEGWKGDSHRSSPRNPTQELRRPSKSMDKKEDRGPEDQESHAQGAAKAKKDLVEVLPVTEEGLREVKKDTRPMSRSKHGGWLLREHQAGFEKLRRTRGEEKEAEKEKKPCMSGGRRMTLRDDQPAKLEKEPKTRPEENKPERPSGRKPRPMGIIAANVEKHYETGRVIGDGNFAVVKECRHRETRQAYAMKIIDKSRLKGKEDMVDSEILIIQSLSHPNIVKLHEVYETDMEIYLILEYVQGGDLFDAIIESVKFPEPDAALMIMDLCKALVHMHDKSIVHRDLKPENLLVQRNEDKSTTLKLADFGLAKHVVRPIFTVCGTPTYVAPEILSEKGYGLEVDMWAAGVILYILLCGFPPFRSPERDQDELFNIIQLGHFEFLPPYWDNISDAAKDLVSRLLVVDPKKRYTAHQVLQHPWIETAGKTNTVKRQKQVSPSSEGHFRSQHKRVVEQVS

[11] = target: Non-receptor tyrosine-protein kinase TYK2 (Homo sapiens) (UniProt P29597); conditions: Compound concentration 1000.0 nM
[12] = target: Serine/threonine-protein kinase RIO3 (Homo sapiens) (UniProt O14730); conditions: Compound concentration 1000.0 nM
[13] = target: T3, cGMP-dependent protein kinase 1 (Homo sapiens) (UniProt Q13976); conditions: Compound concentration 1000.0 nM
T3 sequence (whole entry): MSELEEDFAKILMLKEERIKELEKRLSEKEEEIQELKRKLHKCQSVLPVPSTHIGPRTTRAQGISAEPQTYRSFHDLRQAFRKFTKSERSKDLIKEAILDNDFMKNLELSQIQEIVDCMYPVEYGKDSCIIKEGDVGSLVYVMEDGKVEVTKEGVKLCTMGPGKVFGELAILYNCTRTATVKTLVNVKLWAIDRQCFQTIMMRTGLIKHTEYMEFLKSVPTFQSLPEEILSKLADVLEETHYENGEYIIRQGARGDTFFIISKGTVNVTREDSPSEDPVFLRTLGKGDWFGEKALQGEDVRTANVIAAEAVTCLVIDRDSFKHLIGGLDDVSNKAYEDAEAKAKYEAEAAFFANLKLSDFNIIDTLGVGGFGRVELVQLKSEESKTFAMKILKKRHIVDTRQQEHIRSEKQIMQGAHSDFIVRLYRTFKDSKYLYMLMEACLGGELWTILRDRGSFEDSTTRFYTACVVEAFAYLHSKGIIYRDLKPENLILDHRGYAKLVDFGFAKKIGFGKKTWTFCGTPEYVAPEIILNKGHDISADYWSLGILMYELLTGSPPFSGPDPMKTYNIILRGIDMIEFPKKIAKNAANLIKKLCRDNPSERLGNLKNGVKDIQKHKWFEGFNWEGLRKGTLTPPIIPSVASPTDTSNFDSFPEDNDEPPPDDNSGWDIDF

[14] = target: Serine/threonine-protein kinase TAO1 (Homo sapiens) (UniProt Q7L7X3); conditions: Compound concentration 1000.0 nM
[15] = target: Uncharacterized serine/threonine-protein kinase SBK3 (Homo sapiens) (UniProt P0C264); conditions: Compound concentration 1000.0 nM
Sequence of Uncharacterized serine/threonine-protein kinase SBK3 (Homo sapiens) (P0C264 whole entry): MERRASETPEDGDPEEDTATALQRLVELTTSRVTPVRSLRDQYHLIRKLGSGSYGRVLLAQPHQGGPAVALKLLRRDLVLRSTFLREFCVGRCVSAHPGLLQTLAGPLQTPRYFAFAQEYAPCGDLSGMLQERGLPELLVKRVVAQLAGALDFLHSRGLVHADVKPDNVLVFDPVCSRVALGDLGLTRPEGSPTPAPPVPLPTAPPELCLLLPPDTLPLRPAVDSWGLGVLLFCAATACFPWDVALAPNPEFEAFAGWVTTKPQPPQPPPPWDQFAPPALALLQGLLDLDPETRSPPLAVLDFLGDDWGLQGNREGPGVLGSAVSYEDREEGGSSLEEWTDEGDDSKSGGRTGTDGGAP

[16] = target: Homeodomain-interacting protein kinase 1 (Homo sapiens) (UniProt Q86Z02); conditions: Compound concentration 1000.0 nM
[17] = target: Sodium-dependent noradrenaline transporter (Homo sapiens) (UniProt P23975); conditions: Compound concentration 10.0 uM
Sequence of Sodium-dependent noradrenaline transporter (Homo sapiens) (P23975 whole entry): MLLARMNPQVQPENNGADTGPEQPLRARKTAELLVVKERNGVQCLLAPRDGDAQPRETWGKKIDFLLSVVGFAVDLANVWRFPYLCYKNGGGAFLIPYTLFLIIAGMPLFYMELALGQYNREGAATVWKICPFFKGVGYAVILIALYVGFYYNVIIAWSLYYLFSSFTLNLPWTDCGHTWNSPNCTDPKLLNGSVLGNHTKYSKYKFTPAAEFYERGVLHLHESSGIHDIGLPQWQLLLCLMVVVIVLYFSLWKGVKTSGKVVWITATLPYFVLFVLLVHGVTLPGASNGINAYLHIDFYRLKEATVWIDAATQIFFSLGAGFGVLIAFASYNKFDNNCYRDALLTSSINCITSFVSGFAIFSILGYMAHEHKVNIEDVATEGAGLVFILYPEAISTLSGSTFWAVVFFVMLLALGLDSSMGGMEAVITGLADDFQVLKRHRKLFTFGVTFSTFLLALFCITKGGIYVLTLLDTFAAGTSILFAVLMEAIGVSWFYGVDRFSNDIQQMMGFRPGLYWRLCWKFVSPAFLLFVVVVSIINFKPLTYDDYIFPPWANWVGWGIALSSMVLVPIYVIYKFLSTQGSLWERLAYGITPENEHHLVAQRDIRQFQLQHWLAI

[18] = tested on: Epidermal growth factor receptor (Homo sapiens), P00533 [L858R]; conditions: Compound concentration 1000.0 nM

Sequence of 5-hydroxytryptamine receptor 2B (Homo sapiens) (P41595 whole entry): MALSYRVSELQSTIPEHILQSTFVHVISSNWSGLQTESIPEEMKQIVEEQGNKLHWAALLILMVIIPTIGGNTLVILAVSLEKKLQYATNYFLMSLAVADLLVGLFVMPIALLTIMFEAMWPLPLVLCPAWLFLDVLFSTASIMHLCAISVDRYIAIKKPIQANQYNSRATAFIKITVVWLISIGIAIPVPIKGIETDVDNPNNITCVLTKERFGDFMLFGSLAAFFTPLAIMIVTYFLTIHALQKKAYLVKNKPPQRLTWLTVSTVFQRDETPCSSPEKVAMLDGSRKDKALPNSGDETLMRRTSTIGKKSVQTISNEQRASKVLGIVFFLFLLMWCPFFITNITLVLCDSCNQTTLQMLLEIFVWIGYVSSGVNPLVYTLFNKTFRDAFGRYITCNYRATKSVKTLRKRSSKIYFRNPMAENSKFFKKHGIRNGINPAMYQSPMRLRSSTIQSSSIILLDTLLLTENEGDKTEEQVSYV

SMILES	residual activity [1] [%]	residual activity [2] [%]	inhibition [3] [%]	residual activity [4] [%]	residual activity [5] [%]	residual activity [6] [%]	residual activity [7] [%]	residual activity [8] [%]	residual activity [9] [%]	residual activity [10] [%]	residual activity [11] [%]	residual activity [12] [%]	residual activity [13] [%]	residual activity [14] [%]	residual activity [15] [%]	residual activity [16] [%]	inhibition [17] [%]	residual activity [18] [%]
CCc1ccccc1C(=O)Nc1n[nH]c2c(C)c(F)c(C3C(C#N)=C(C)N(C)C(C)=C3C#N)cc12 [BAY-3827]	100	100	32.5	100	100	100	100	99	99	82	100	45	100	100	73	99	2.8	93
CC1=C(C#N)C(c2ccc3c(c2)c(NC(=O)c2ccccc2C)nn3C)C(C#N)=C(C)N1 [BAY-974]	86	94	11.4	83	97	80	7.5	100	85	89	82	87	100	100	100	71	2.85	80
